Reference: ChEMBL document CHEMBL1201862, “PubChem BioAssay data set” (2004)
The source made the active and inactive calls. For most assays here, no stated cut-off is given here; in the data, actives have a measured IC50 and inactives only a lower limit.

Tests used:
[1] = biological target: T1, E3 ubiquitin-protein ligase XIAP (Homo sapiens, UniProt P98170); experiment: XIAP antagonists, biochemical, IAP family, fluorescence polarization (AID 1018); format: functional
[2] = biological target: T1, E3 ubiquitin-protein ligase XIAP; experiment: Counter Screen using XIAP-Bir3 for Chemical Antagonists of Bir1/2 domains of IAP-family anti-apoptotic proteins. [Related pubchem assays (depositor defined):AID1018, AID1449, AID1514, AID1638, AID1749, AID1750, AID488957, AID488963]
[3] = biological target: T2, SUMO-activating enzyme (Homo sapiens, UniProt Q9UBT2); experiment: inhibitors of in vitro SUMOylation cascade, primary screen, biochemical, HTRF, uHTS (AID 2006); format: protein-complex assay
[4] = biological target: T2, SUMO-activating enzyme; experiment: SUMOylation inhibitor hit validation, confirmation, SUMOylation inhibitor project, biochemical, AlphaScreen (AID 2018); format: functional
[5] = Luminescence Cell-Based Dose Retest to Confirm Inhibitors of Cancer Stem Cells. [Related pubchem assays (depositor defined):AID2717, AID2721]; format: functional; settings: Homo sapiens
[6] = biological target: T3, Heat shock factor protein 1 (Mus musculus, UniProt P38532); experiment: HSF1 potentiators in luciferase reporter cells, confirmation, cell-based, NIH3T3, luminescence, dose retest (AID 435004); format: functional;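 further: stress induced by proteasome inhibitor MG132 added 30 min after compound; luciferase reporter driven by HSF1 response element in NIH3T3 cells; actives raise luminescence as potentiators of the MG132 stress response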
T3 sequence (P38532 whole entry): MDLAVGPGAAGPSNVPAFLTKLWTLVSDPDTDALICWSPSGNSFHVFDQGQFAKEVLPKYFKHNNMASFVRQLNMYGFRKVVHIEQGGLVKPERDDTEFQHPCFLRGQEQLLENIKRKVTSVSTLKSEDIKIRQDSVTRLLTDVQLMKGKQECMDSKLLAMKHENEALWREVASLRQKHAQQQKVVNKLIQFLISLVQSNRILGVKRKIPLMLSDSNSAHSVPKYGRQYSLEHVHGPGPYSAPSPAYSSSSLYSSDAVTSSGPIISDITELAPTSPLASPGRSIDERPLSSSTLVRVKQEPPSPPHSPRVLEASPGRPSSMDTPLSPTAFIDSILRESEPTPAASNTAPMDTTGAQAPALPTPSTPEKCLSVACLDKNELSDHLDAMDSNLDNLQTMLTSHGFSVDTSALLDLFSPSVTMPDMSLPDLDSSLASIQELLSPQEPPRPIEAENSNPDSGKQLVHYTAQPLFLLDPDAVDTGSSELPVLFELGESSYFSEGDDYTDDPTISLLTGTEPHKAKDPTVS

[7] = biological target: T4, Microphthalmia-associated transcription factor (Homo sapiens, UniProt O75030); experiment: TRPM1 promoter luciferase signal decrease, dose response, MITF inhibitor project, cell-based, SK-MEL-5, cherry-picked, set 3 (AID 493073); format: functional
T4 sequence (O75030 whole entry): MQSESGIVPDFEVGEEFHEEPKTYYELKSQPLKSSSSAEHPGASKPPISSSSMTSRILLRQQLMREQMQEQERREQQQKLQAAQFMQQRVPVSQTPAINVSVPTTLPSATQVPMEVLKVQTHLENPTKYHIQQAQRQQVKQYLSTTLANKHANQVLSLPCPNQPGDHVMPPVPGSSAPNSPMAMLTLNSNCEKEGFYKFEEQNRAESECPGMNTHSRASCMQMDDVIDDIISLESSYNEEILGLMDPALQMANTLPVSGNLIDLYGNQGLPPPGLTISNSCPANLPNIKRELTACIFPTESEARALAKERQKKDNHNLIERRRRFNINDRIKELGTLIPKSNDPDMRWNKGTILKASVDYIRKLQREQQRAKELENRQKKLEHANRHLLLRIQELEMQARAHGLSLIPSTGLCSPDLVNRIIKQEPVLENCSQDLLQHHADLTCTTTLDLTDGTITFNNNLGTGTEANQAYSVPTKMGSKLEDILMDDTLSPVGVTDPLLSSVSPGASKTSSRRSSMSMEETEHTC

[8] = biological target: T5, Voltage-gated N-type calcium channel alpha-1B subunit/Amyloid beta A4 precursor protein-binding family A member 1 (Homo sapiens, UniProt Q00975+Q02410); format: protein assay
[9] = biological target: T5, Voltage-gated N-type calcium channel alpha-1B subunit/Amyloid beta A4 precursor protein-binding family A member 1; format: protein assay; remark: listed apart in the source
[10] = biological target: DNA dC->dU-editing enzyme APOBEC-3A (Homo sapiens, UniProt P31941); experiment: APOBEC3A DNA deaminase inhibitors, dose response, biochemical (AID 504722); format: functional
[11] = biological target: DNA dC->dU-editing enzyme APOBEC-3G (Homo sapiens, UniProt Q9HC16); experiment: Dose Response confirmation of small molecule APOBEC3G DNA Deaminase Inhibitors via a fluorescence-based single-stranded DNA deaminase assay. [Related pubchem assays (depositor defined):AID493012, AID493028]; format: functional
[12] = biological target: Glyceraldehyde-3-phosphate dehydrogenase (Homo sapiens, UniProt P04406)
[13] = biological target: T6, Alkaline phosphatase, tissue-nonspecific isozyme (Homo sapiens, UniProt P05186); experiment: human TNAP enzyme inhibitors, SAR follow-up, biochemical, luminescent, dose response (AID 1056)
T6 sequence (P05186 whole entry): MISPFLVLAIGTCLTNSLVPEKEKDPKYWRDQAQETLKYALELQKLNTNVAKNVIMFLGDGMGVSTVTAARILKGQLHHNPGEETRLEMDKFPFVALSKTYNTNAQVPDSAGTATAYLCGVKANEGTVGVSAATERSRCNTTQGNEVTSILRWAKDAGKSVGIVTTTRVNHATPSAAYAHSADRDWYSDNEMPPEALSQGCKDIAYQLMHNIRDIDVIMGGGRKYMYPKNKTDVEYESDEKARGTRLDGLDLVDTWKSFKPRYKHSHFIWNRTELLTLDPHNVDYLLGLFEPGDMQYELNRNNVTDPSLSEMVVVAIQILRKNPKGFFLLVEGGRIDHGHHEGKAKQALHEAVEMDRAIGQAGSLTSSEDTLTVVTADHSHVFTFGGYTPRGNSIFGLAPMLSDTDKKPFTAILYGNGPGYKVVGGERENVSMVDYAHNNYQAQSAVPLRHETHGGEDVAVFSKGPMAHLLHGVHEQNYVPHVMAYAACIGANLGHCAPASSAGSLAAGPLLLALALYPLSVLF

[14] = biological target: T7, Rac GTPase-activating protein 1 (Homo sapiens, UniProt Q9H0H5); experiment: MgcRacGAP GTPase-activating activity inhibitors, confirmation, biochemical, ADP Hunter fluorescence, primary and confirmatory (AID 624330); format: functional
T7 sequence (Q9H0H5 whole entry): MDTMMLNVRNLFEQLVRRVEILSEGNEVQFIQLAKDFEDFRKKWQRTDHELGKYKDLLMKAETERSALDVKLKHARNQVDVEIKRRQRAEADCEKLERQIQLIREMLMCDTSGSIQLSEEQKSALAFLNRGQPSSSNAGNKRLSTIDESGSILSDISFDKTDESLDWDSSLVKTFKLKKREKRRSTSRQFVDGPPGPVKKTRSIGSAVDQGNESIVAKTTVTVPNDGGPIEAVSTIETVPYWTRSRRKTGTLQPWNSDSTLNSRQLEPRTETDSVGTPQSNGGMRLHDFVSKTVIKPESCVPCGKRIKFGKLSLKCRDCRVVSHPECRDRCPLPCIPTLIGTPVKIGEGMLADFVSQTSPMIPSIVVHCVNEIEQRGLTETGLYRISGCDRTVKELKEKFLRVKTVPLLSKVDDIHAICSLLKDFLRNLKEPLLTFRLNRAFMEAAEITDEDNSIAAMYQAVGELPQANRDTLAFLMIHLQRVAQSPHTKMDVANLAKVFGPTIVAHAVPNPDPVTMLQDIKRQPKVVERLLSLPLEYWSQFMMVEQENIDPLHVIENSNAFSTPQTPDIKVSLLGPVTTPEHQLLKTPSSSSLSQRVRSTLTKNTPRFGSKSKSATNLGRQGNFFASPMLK

[15] = biological target: T8, Hexokinase (Trypanosoma brucei, UniProt Q38C41); experiment: Confirmation assay for inhibitors of Trypanosoma brucei hexokinase 1-Analogue-first series. [Related pubchem assays (depositor defined):AID1430, AID1632, AID2516, AID2560, AID2579, AID2600, AID449725, AID492951]; format: functional
T8 sequence (Q38C41 whole entry): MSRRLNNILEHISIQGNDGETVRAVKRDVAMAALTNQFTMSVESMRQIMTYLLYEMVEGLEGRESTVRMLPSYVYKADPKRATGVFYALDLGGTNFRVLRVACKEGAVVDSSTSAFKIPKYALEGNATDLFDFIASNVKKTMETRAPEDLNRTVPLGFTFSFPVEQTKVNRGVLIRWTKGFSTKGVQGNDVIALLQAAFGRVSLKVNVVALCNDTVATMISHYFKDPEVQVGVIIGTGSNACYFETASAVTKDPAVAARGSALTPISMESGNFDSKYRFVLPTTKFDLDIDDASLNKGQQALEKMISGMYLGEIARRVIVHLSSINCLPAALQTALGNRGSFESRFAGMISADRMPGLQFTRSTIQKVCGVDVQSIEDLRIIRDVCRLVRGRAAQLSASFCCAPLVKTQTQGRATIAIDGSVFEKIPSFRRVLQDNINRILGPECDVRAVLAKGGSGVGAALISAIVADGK

Sequence of DNA dC->dU-editing enzyme APOBEC-3A (P31941 whole entry): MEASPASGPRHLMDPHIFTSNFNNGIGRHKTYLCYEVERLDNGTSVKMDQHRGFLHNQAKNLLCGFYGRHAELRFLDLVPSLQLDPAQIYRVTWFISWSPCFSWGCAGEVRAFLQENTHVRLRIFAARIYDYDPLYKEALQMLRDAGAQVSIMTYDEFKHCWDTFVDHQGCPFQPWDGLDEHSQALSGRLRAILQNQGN
Sequence of DNA dC->dU-editing enzyme APOBEC-3G (Q9HC16 whole entry): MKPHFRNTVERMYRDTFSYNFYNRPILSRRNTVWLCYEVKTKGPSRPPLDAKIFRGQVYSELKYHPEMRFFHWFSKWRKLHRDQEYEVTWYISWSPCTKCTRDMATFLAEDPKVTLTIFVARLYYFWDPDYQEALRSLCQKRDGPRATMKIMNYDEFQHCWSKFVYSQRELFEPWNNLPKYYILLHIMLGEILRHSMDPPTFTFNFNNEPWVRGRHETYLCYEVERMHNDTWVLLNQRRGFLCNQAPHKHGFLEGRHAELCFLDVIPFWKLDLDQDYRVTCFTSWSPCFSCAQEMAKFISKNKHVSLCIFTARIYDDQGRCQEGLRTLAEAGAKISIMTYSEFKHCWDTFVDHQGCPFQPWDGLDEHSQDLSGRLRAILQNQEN
T2 sequence (Q9UBE0 whole entry): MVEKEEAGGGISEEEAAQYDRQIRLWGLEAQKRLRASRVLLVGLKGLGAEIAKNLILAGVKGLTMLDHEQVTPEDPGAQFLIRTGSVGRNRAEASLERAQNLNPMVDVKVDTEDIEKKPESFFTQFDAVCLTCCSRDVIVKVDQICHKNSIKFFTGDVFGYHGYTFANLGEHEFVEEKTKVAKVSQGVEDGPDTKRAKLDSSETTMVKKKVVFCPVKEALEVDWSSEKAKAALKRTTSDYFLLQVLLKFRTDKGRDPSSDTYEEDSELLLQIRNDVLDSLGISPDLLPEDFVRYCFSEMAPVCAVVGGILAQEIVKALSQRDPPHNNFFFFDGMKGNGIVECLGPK
T2 sequence (Q9UBT2 whole entry): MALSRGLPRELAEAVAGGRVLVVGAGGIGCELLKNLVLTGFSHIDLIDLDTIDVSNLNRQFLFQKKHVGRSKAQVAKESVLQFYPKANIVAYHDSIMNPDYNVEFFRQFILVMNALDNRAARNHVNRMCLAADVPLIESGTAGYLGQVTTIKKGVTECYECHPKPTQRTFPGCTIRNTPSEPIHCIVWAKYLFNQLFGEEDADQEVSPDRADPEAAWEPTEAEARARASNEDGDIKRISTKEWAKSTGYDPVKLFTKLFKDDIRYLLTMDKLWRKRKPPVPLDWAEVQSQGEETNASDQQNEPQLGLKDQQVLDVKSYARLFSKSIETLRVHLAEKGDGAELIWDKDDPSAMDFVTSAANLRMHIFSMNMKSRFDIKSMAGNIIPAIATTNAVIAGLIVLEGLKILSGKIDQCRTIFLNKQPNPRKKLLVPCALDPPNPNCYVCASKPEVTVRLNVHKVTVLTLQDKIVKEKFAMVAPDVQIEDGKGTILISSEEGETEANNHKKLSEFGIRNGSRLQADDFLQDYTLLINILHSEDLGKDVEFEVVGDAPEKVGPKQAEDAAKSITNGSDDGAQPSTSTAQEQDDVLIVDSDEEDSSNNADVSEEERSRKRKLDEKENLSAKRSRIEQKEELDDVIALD
T5 sequence (Q00975 whole entry): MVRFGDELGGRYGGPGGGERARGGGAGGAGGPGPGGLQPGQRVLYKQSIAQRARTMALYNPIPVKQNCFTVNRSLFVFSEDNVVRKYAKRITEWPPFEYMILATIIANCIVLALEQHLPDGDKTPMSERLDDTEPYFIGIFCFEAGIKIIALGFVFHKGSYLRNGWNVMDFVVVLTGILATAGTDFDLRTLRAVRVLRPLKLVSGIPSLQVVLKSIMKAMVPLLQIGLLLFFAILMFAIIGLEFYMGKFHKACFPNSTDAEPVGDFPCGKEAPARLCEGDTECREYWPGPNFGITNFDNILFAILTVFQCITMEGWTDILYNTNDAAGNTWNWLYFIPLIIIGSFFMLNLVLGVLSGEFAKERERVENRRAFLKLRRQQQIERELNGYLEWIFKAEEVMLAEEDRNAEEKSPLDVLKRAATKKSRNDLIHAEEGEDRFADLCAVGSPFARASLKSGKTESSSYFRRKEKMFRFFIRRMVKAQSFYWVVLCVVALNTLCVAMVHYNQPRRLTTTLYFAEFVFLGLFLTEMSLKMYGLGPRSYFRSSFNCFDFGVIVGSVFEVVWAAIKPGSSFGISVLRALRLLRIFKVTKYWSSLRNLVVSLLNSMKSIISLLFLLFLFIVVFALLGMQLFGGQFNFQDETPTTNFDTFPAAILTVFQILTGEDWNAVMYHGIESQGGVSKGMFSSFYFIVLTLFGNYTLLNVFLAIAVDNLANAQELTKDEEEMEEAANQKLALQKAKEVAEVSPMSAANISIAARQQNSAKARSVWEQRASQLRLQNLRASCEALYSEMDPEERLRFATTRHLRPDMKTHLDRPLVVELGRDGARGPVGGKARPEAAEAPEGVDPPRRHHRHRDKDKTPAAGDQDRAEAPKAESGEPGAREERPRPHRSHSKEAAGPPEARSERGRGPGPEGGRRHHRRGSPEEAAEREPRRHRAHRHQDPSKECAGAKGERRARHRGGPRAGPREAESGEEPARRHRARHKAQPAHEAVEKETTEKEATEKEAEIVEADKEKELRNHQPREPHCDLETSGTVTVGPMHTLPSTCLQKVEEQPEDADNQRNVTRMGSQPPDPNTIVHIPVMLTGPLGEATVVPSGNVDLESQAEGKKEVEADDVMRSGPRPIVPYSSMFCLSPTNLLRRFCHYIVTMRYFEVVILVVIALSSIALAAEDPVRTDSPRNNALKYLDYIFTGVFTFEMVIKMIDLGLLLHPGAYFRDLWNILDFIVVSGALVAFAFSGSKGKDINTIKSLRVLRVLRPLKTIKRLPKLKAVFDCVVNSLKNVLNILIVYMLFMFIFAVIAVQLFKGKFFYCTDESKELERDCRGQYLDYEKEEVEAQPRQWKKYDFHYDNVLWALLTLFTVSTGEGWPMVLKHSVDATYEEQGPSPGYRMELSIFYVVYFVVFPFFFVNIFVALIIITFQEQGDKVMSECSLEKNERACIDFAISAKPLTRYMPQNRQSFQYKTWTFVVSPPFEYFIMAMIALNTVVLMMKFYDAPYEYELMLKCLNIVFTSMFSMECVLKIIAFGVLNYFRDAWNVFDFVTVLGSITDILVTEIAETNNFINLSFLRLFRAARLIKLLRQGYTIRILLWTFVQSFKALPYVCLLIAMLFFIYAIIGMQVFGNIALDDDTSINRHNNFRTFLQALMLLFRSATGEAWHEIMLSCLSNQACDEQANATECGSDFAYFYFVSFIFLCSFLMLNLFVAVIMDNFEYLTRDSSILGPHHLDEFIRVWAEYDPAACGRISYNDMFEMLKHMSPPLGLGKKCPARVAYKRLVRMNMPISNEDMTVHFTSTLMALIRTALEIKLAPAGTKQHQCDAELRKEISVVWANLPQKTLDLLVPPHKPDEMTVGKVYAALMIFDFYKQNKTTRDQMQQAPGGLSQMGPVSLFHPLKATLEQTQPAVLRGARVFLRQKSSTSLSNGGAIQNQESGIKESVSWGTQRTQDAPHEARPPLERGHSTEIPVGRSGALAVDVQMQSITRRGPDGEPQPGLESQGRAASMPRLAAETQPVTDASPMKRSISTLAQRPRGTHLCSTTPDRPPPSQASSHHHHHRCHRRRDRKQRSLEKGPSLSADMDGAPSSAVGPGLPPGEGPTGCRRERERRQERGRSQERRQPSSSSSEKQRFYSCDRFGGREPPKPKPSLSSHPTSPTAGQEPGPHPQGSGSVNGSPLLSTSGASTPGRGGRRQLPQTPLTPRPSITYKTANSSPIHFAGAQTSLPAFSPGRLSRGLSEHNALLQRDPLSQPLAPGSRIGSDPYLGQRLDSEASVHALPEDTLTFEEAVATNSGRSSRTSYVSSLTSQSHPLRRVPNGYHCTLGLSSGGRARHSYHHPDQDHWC
T5 sequence (Q02410 whole entry): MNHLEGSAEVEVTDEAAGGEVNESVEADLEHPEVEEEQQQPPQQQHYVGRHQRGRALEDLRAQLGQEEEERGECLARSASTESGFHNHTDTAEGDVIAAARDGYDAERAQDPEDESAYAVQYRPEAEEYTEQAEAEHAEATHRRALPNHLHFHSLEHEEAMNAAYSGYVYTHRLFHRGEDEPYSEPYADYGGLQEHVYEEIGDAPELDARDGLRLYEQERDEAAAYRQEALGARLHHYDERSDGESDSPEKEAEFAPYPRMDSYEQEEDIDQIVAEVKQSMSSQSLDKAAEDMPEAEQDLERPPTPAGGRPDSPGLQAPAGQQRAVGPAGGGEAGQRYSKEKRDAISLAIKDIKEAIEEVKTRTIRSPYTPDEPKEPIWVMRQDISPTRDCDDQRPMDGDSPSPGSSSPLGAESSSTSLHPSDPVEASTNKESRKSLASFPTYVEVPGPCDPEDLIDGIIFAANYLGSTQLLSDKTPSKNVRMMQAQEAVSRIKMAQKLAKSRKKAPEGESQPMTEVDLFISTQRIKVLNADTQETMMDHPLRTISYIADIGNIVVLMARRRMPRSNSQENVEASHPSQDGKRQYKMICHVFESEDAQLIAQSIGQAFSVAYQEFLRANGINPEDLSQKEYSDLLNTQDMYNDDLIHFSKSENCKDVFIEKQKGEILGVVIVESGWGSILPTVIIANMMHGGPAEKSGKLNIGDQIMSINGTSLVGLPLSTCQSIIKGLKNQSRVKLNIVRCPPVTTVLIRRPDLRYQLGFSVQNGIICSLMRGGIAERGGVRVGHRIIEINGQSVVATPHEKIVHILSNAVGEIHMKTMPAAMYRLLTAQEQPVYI

Which IC50 [1] does the source give for `c1c(CN2CCCCC2)n[nH]c1C1CCCCC1` here?
Its IC50 is > 100 µM (not active).

What about the IC50 [2] of the same compound?
The IC50 was > 100 µM (inactive).

What does the source list for `O=C1C(C2=NC(c3ccccn3)C3C(=O)N(c4ccc(Cl)cc4Cl)C(=O)C23)=C(O)c2ccccc21` (stereo unspecified)?
IC50 [3]: 15 µM (active); IC50 [4]: 34.6 µM (active); AC50 [5]: 13.6 µM (active)

With `CCOc1cc(/C=C\[N+](=O)[O-])ccc1OCC(=O)N1CCOCC1` as the compound, how does the EC50 [6] read?
Its EC50 is 11 µM (active).

And the AC50 [7]?
The AC50 was 7.35 µM (active).

And the IC50 [8]?
Its IC50 is 9.89 µM (active).

What about the IC50 [9] of the same compound?
Its IC50 is 29.4 µM (active).

Which results are given for `CCc1ccc(-n2c(=O)c3ccccc3n3c(S)nnc23)cc1.CN(C)C=O`?
IC50 [10]: > 100 µM (inactive); IC50 [11]: 4.9 µM (active)

Which IC50 [12] does the source give for `Cc1ccccc1S(=O)(=O)Nc1nc2ccccc2nc1Cl` here?
Its IC50 is > 100 µM (not active).

And the IC50 [13]?
The IC50 was > 100 µM (inactive).

With `N#Cc1c(=O)c2nc(NCc3ccccc3)ncc2n2ccccc12` as the compound, how does the IC50 [4] read?
The IC50 was 14.3 µM (active).

For `CN1CCN(C(=O)Cc2nc3ccccc3[nH]2)CC1`, which IC50 [1] is on record?
Its IC50 is > 100 µM (not active).

And the IC50 [2]?
Its IC50 is > 100 µM (inactive).

Which IC50 [10] does the source give for `O=C(Nc1nnc(S)s1)c1ccco1` here?
The IC50 was > 100 µM (inactive).

What about the IC50 [11] of the same compound?
Its IC50 is 5.51 µM (active).

And the IC50 [14]?
The IC50 was 102 µM (active).

Which IC50 [10] does the source give for `N#Cc1cc2c([nH]c1=S)CCCC2` here?
Its IC50 is > 100 µM (inactive).

What about the IC50 [11] of the same compound?
The IC50 was 5.16 µM (active).

With `COc1ccc(CC(=O)Nc2cc(Cl)ccc2C(=O)O)cc1` as the compound, how does the IC50 [15] read?
Its IC50 is > 25 µM (inactive).

Which IC50 [12] does the source give for `COc1ccc(OC)c(S(=O)(=O)n2cc(C(N)=O)c3ccccc32)c1` here?
Its IC50 is > 100 µM (not active).

What about the IC50 [13] of the same compound?
Its IC50 is > 100 µM (inactive).

With `Cc1ccc(N(CC(O)COCc2ccco2)S(=O)(=O)c2ccc(C)cc2)cc1` (stereo unspecified) as the compound, how does the IC50 [8] read?
The IC50 was 28 µM (active).

And the IC50 [9]?
Its IC50 is > 50 µM (inactive).

Which IC50 [15] does the source give for `CC(C)c1cccc(C(=O)Nc2cc(Cl)ccc2C(=O)O)c1` here?
Its IC50 is > 25 µM (inactive).

What does the source list for `C/C(Cn1nnc([N+](=O)[O-])n1)=N\NC(=O)c1ccc(C)cc1`?
IC50 [1]: > 100 µM (not active); IC50 [2]: > 100 µM (inactive)

What does the source list for `COC(=O)c1cc(-c2ccc3ccccc3c2)[nH]n1`?
IC50 [12]: > 100 µM (not active); IC50 [13]: 0.6 µM (active)
